# In BindingDB's records for patent US20240083888 (Reistone Biopharma Company, 2024):
# pIC50: −log10 of the molar value.
# Molecular target: Dipeptidyl peptidase 1 (Homo sapiens, UniProt P53634)
# Experiment: In Vitro Inhibitory Assay
# Description: The compound was diluted with DMSO to a 384-well echo plate at a concentration of 100× of the highest concentration at the beginning of the experiment. 0.2 μL of the diluted compound was pipetted to a black-bottomed 384-well reaction plate for later use. […] The solution was added to the black-bottom 384-well reaction plate ([…]). 10 μL of the buffer was added for the vehicle control group. The plate containing compounds in its wells was incubated at room temperature for 30 minutes.
# Dipeptidyl peptidase 1, sequence (P53634 25-134 limits assumed): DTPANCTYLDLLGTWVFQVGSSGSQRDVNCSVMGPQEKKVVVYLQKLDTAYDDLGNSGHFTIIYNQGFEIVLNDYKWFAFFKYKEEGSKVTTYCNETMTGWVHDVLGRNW
# Dipeptidyl peptidase 1, sequence (P53634 231-394 limits assumed): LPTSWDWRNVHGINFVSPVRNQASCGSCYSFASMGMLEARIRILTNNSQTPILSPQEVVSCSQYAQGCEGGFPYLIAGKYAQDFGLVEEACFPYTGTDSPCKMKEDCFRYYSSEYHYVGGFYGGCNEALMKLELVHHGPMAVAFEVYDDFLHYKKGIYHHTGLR
# Dipeptidyl peptidase 1, sequence (P53634 395-463 limits assumed): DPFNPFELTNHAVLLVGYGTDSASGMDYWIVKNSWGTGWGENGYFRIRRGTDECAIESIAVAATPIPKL
smiles,measurement,value
"N#C[C@H](Cc1ccc2c(c1)CC(=O)N(c1ccc(F)cc1)C2)NC(=O)C1(N)CCCCC1 [US20240083888, Compound 58]",pIC50,7.77
